Results published in patent US20180125993A1 (BEIJING COTIMES BIOTECH COMPANY LIMITED, priority 2014, published 2018).
Marks after values point to notes of the source that are not given here.

Tests used:
colon cancer, CS182, 5# = test: Patients primary tumor tissue subcutaneous model (Day 27 after treatment); assay type: in vivo, nude mice; settings: HuCTB006 10 mg/kg i.v. QW × 3w
Description: (§1) Fresh primary tumor tissues from patients were implanted in NOD/SCID mice's flank, which developed into a primary tumor, which was then transferred to the nude mice's flank to allow the tumor reaching an exponential growth phase, and the tumor was named 1# tumor, and so on. When the tumor volume and number reached passage requirements, they were implanted into the right flank of nude mice. When the tumors' average volumes reached 100-200 mm^3, the mice were grouped.
(§2) The bodyweight and major/minor axis of mice were measured twice a week, and Tumor Growth Inhibition (TGI) and tumor volume were calculated same as in 5.1.5. In addition, to evaluate the synergetic effect of drug combination in tumor growth, Jin Zhengjun Q value judgment method was used with the follow formula: Q=Ea+b/(Ea+Eb−Ea×Eb). Ea+b is the inhibition ratio of drug combination, Ea and Eb are the inhibition ratio of each of drug treatment when it is administered alone. […] The animals were monitored, and when the experiments were concluded, mice were sacrificed and tumors were extracted and weighted. All the animal experiments confer to the regulations of animal's welfare and the management of experimental animal usage.
(§3) Tumor volumes were represented with average±standard error. Data analysis was done using Spss16.0, One-Way ANOVA, LSD (homogeneity of variance) or Dunnett T3 (non-homogeneity of variance). […] P<0.05 represents significant difference.

BT474 = test: In vitro cytotoxic sensitivity of CTB006; assay type: cell-based, human; settings: BT474, Breast cancer
OVCA3 = test: In vitro cytotoxic sensitivity of CTB006; assay type: cell-based, human; settings: OVCA3, Ovarian cancer
BGC803 = test: In vitro cytotoxic sensitivity of CTB006; assay type: cell-based, human; settings: BGC803, Stomach cancer
HT1080 = test: In vitro cytotoxic sensitivity of CTB006; assay type: cell-based, human; settings: HT1080, Fibrosarcoma
N87 = test: In vitro cytotoxic sensitivity of CTB006; assay type: cell-based, human; settings: N87, Stomach cancer
MDA-MB-468 = test: In vitro cytotoxic sensitivity of CTB006; assay type: cell-based, human; settings: MDA-MB-468, Breast cancer
A427 = test: In vitro cytotoxic sensitivity of CTB006; assay type: cell-based, human; settings: A427, Lung cancer
colon cancer, CS263, 1# = test: Patients primary tumor tissue subcutaneous model (Day 35 after treatment); assay type: in vivo, nude mice; settings: HuCTB006 10 mg/kg i.v. QW × 4w
Description: as §1, §2, §3

MKN28 = test: In vitro cytotoxic sensitivity of CTB006; assay type: cell-based, human; settings: MKN28, Stomach cancer
MDA-MB-453 = test: In vitro cytotoxic sensitivity of CTB006; assay type: cell-based, human; settings: MDA-MB-453, Breast cancer
H2122 = test: Human lung cancer H2122 subcutaneous model (Day 38 after treatment); settings: for Tumor regression: treatment groups
Description: Tumor cells (i.e., MIA-PaCa-2, WiDr, H2122, colo205) were inoculated in nude mice's flank at 5×10^6 cells per mouse. The mice were grouped when the average volume of tumors reached about 100˜200 mm^3. “QW”=weekly dose. “Q3d”=dosed every third day. “BiW”=biweekly.
The bodyweight and major/minor axis of the mice were measured twice a week, and the tumor volumes were calculated using the formula: Tumor volume=1/2×major axis×minor axis. […] “T” represents average tumor volume of the experimental group (cm^3), and “C” represents average tumor volume of the control group (cm^3). The animals were monitored at all times. The bodyweight and major/minor axis or mice were measured twice a week. When the experiments were concluded, mice were sacrificed and tumors were extracted and weighted.

7402 = test: In vitro cytotoxic sensitivity of CTB006; assay type: cell-based, human; settings: 7402, Liver cancer
SW620 = test: In vitro cytotoxic sensitivity of CTB006; assay type: cell-based, human; settings: SW620, Colorectal cancer
SKOV3 = test: In vitro cytotoxic sensitivity of CTB006; assay type: cell-based, human; settings: SKOV3, Ovarian cancer
ASPC-1 = test: In vitro cytotoxic sensitivity of CTB006; assay type: cell-based, human; settings: ASPC-1, Pancreatic cancer
[1] = HuCTB006 0.2 mg/kg i.v. QW × 6W
[2] = HuCTB006 0.2 mg/kg i.v. QW × 6W, 0.2 mg/kg
[3] = HuCTB006 0.2 mg/kg i.v. QW × 6W, listed as HUCTB006, 0.2 mg/kg
[4] = HuCTB006 0.6 mg/kg i.v. QW × 6W
[5] = HuCTB006 0.6 mg/kg i.v. QW × 6W, 0.6 mg/kg
[6] = HuCTB006 0.6 mg/kg i.v. QW × 6W, listed as HUCTB006, 0.6 mg/kg
[7] = HuCTB006 1.8 mg/kg i.v. QW × 6W
[8] = HuCTB006 1.8 mg/kg i.v. QW × 6W, 1.8 mg/kg
[9] = HuCTB006 1.8 mg/kg i.v. QW × 6W, listed as HUCTB006, 1.8 mg/kg
[10] = HuCTB006 5.4 mg/kg i.v. QW × 6W
[11] = HuCTB006 5.4 mg/kg i.v. QW × 6W, 5.4 mg/kg
[12] = HuCTB006 5.4 mg/kg i.v. QW × 6W, listed as HUCTB006, 5.4 mg/kg
[13] = repeated experiment, HuCTB006 0.2 mg/kg
[14] = repeated experiment, HuCTB006 0.6 mg/kg
[15] = repeated experiment, HuCTB006 1.8 mg/kg
[16] = repeated experiment, HuCTB006 5.4 mg/kg

HuCTB006: Monospecific humanized chimeric monoclonal antibody directed to TRAIL-R2 receptor; heavy chain SEQ ID NO: 14, light chain SEQ ID NO: 12
T/C % (Calculated using tumor volumes) (colon cancer, CS182, 5#): 102.39% | Time of tumor volume changed significantly (colon cancer, CS182, 5#): 3 | Tumor Volume Mean ± SEM (colon cancer, CS182, 5#): 0.95 ± 0.06 cm^3 | Tumor weight Mean ± SEM (colon cancer, CS182, 5#): 0.64 ± 0.06 g | TGI (Calculated using tumor volumes) (colon cancer, CS182, 5#; 10 mg/kg): −21.15% | TGI (Calculated using tumor weight) (colon cancer, CS182, 5#; 10 mg/kg): −9.22% | TGI (Calculated using tumor volumes) (colon cancer, CS182, 5#; listed as HUCTB006, 10 mg/kg): −21.15% | TGI (Calculated using tumor weight) (colon cancer, CS182, 5#; listed as HUCTB006, 10 mg/kg): −9.22% | In vitro cytotoxic sensitivity of CTB006 (BT474): Non-responder | In vitro cytotoxic sensitivity of CTB006 (OVCA3): Non-responder | In vitro cytotoxic sensitivity of CTB006 (BGC803): Non-responder | In vitro cytotoxic sensitivity of CTB006 (HT1080): Non-responder | In vitro cytotoxic sensitivity of CTB006 (N87): Non-responder | In vitro cytotoxic sensitivity of CTB006 (MDA-MB-468): Non-responder | In vitro cytotoxic sensitivity of CTB006 (A427): Non-responder | T/C % (Calculated using tumor volumes) (colon cancer, CS263, 1#): 89.71% | TGI (Calculated using tumor volumes) (colon cancer, CS263, 1#): 9.42% | TGI (Calculated using tumor weight) (colon cancer, CS263, 1#): 16.11% | Time of tumor volume changed significantly (colon cancer, CS263, 1#): 13 | Tumor Volume Mean ± SEM (colon cancer, CS263, 1#): 0.96 ± 0.22 cm^3 | Tumor weight Mean ± SEM (colon cancer, CS263, 1#): 0.67 ± 0.16 g | TGI (Calculated using tumor volumes) (colon cancer, CS263, 1#; 10 mg/kg): 9.42% | TGI (Calculated using tumor weight) (colon cancer, CS263, 1#; 10 mg/kg): 16.11% | In vitro cytotoxic sensitivity of CTB006 (MKN28): Non-responder | In vitro cytotoxic sensitivity of CTB006 (MDA-MB-453): Non-responder | T/C % (Calculated using tumor volumes) (H2122; [1]): 92.13% | Time of tumor volume changed significantly (H2122; [1]): 8 | Tumor Volume Mean ± SEM (H2122; [1]): 1.85 ± 0.15 cm^3 | Tumor weight Mean ± SEM (H2122; [1]): 1.54 ± 0.09 g | TGI (Calculated using tumor volumes) (H2122; [2]): 11.56% | TGI (Calculated using tumor weight) (H2122; [2]): 6.45% | TGI (Calculated using tumor volumes) (H2122; [3]): 11.56% | TGI (Calculated using tumor weight) (H2122; [3]): 6.45%^5 | T/C % (Calculated using tumor volumes) (H2122; [4]): 50.75% | Tumor Volume Mean ± SEM (H2122; [4]): 1.02 ± 0.31 cm^3 | Tumor weight Mean ± SEM (H2122; [4]): 0.89 ± 0.29 g | TGI (Calculated using tumor volumes) (H2122; [5]): 51.06% | TGI (Calculated using tumor weight) (H2122; [5]): 45.66% | TGI (Calculated using tumor volumes) (H2122; [6]): 51.06%^3 | TGI (Calculated using tumor weight) (H2122; [6]): 45.66%^4 | T/C % (Calculated using tumor volumes) (H2122; [7]): 6.46% | Tumor Volume Mean ± SEM (H2122; [7]): 0.16 ± 0.16 cm^3 | Tumor weight Mean ± SEM (H2122; [7]): 0.12 ± 0.12 g | TGI (Calculated using tumor volumes) (H2122; [8]): 92.08% | TGI (Calculated using tumor weight) (H2122; [8]): 92.48% | TGI (Calculated using tumor volumes) (H2122; [9]): 92.08%**^2 | TGI (Calculated using tumor weight) (H2122; [9]): 92.48%* | T/C % (Calculated using tumor volumes) (H2122; [10]): 5.54% | Tumor Volume Mean ± SEM (H2122; [10]): 0.18 ± 0.18 cm^3 | Tumor weight Mean ± SEM (H2122; [10]): 0.19 ± 0.18 g | TGI (Calculated using tumor volumes) (H2122; [11]): 91.23% | TGI (Calculated using tumor weight) (H2122; [11]): 8.62% | TGI (Calculated using tumor volumes) (H2122; [12]): 91.23%** | TGI (Calculated using tumor weight) (H2122; [12]): 88.62%*^1 | Bodyweights (H2122; Taxol group, HuCTB006 0.2 mg/kg group): decreased, but were maintained at an acceptable level | Tumor regression (H2122; first experiment): some animals of HuCTB006 treatment groups showed tumor regression | Tumor regression (H2122; repeated experiment): some animals of CTB006 treatment groups showed tumor regression | TGI (Calculated using tumor volume) (H2122; [13]): 35.26% | TGI (Calculated using tumor weight) (H2122; [13]): 32.46% | TGI (Calculated using tumor volume) (H2122; [14]): 67.66% | TGI (Calculated using tumor weight) (H2122; [14]): 65.94% | TGI (Calculated using tumor volume) (H2122; [15]): 60.12% | TGI (Calculated using tumor weight) (H2122; [15]): 64.21% | TGI (Calculated using tumor volume) (H2122; [16]): 91.69% | TGI (Calculated using tumor weight) (H2122; [16]): 92.25% | In vitro cytotoxic sensitivity of CTB006 7402: Non-responder | In vitro cytotoxic sensitivity of CTB006 (SW620): Non-responder | In vitro cytotoxic sensitivity of CTB006 (SKOV3): Non-responder | In vitro cytotoxic sensitivity of CTB006 (ASPC-1): Non-responder
